From patent publication US4829069A, “4-Thioquinazoline derivatives as antiulcer agents” (Nisshin Flour Milling Co., Ltd., priority 1987, dated 1989)

Columns and labels:
Toxicity, LD50 (P.O.) = conditions: in vivo, po
[1] = test system: indomethacin induced ulcer; test: Antiulcer activity: suppression of indomethacin induced ulcer; format: in vivo, mouse (ddy series male mice); conditions: 100 mg/kg to the stomach 30 minutes before 20 mg/kg indomethacin p.o.; mean ulcer index vs control group, 4 hours after indomethacin
Method: The antiulcer activity of the compounds of this invention was determined by the following method. Four-week-old ddy series male mice were used as the test animals after they were fasted for 24 hours. Each test compound suspended in a 1% gum arabic solution was administered to the stomach of each mouse at a dose of 100 mg/kg, and then, after 30 minutes, 20 mg/kg of indomethacin was administered orally. Four hours after the administration of indomethacin, the stomach of mouse was extirpated and the length of ulcers was measured. Then, the ulcer index was determined by the total sum of the scores as calculated in Table 1. The mean ulcer index of each group was calculated and the suppression rate against the control group in terms of difference in the mean ulcer index was determined.

[2] = background; cited from earlier work

| SMILES | reversion test (Reversion test) | LD50 (Toxicity, LD50 (P.O.)) | Suppression rate of indomethacin induced ulcer, 100 mg/kg, p.o. [1] | side effects [2] |
| --- | --- | --- | --- | --- |
| c1ccc(CSc2ncnc3ccccc23)nc1 [4-(2-Pyridylmethylthio)-quinazoline] | negative | > 1000 mg/kg | 94 |  |
| c1ccc2nc(CSc3ncnc4ccccc34)ccc2c1 [4-(2-Quinolylmethylthio)-quinazoline] |  |  | 70 |  |
| c1ccc2c(SCc3ccncc3)ncnc2c1 [4-(4-Pyridylmethylthio)-quinazoline] |  |  | 92 |  |
| CCN(CC)CCSc1ncnc2ccccc12 [4-[2-(Diethylamino)ethylthio]-quinazoline] |  |  | 49 |  |
| COc1cc(CSc2ncnc3ccccc23)ncc1C [4-[(4-Methoxy-5-methylpyridin-2-yl)methylthio]-quinazoline] |  |  | 81 |  |
| Cc1ccnc(CSc2ncnc3ccccc23)c1 [4-[(4-Methylpyridin-2-yl)methylthio]-quinazoline] |  |  | 70 |  |
| CN/C(=N/CCSCc1nc[nH]c1C)NC#N [Cimetidine, reference compound] |  |  | 40 | gynecomatism |
